Reference: article PMC10951960, “CGP7930 - An allosteric modulator of GABABRs, GABAARs and inwardly-rectifying potassium channels” (Neuropharmacology, 2023)

Tests used:
[1] = biological target: T1, Kir3.1/3.2 channels (GIRK) (Homo sapiens, UniProt P48051+P48549); test: block of basally-active K+ currents in GIRK cells not expressing GABABRs, high K+ Krebs; assay type: cell-based
T1 construct: expressed in transfected cells
T1 sequence (P48549 1-501): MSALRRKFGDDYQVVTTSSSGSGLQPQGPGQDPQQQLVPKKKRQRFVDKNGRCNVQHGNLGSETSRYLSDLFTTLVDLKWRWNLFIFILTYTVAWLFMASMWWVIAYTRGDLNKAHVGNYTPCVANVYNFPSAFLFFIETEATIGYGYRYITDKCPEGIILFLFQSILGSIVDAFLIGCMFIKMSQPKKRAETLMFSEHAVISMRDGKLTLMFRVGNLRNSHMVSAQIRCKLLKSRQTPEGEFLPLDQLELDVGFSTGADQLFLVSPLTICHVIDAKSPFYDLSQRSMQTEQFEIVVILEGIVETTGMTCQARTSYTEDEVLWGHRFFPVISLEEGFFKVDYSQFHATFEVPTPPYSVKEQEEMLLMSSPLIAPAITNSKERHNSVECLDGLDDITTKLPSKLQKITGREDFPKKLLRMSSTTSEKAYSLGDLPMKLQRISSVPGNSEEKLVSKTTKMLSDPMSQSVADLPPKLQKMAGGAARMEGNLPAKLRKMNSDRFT
T1 sequence (P48051 1-423): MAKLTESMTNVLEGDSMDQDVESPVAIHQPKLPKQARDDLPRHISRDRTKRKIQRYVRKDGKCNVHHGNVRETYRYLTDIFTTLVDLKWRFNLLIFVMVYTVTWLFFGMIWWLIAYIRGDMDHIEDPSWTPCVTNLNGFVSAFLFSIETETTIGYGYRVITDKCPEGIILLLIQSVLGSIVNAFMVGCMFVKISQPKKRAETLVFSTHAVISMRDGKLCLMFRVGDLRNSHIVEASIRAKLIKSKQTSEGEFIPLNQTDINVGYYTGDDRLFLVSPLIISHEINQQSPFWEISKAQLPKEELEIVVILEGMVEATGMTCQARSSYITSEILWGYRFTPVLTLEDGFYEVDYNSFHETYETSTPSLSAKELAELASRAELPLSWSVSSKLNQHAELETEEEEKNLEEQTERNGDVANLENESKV
Procedure: HEK-293T cells were maintained in Dulbecco's modified Eagle's medium containing 10% (v/v) fetal calf serum (FCS), 100 U/ml penicillin-G, 100 μg/ml streptomycin in 95% air/5% CO2 at 37 °C. All cell culture reagents were acquired from ThermoFisher unless otherwise stated. Cells were plated on 22 mm glass coverslips (VWR, UK), coated with poly-L-lysine (Sigma) and transfected using a calcium phosphate method with cDNAs for eGFP, α, β, γ or δ, in a 1:1:1:1 ratio ([Hannan et al., 2020]) applied 1–2 h after cell plating. HEK-293 cells stably expressing Kir3.1/3.2 channels ([Leaney et al., 2000]) were grown in a selection media containing G418 (0.5 mg/ml) and Zeocin (0.4 mg/ml) and passaged, and plated, as for the HEK-293T cells above. These cells are referred to as GIRK cells throughout the text and were transiently transfected with cDNAs for eGFP, GABAB R1a and R2 in a 1:1:5 ratio applied 1–2 h after cell plating.
GABA-activated currents were recorded 24 h after transfection of HEK-293T or GIRK cells. Spontaneous inhibitory postsynaptic currents (sIPSCs) were recorded from cultured hippocampal neurons at 12–17 days in vitro (DIV). Cells were superfused with a saline solution containing (mM): 140 NaCl, 4.7 KCl, 2.52 CaCl2, 1.2 MgCl2, 11 glucose, and 5 HEPES; pH 7.4. sIPSCs from hippocampal culture neurons were recorded in the presence of 2 mM kynurenic acid to block excitatory neurotransmission. […] GABABR-activated K^+ currents in cultured neurons were recorded in the additional presence of 2 mM kynurenic acid and 20 μM picrotoxin.
Borosilicate glass electrodes (3–5 MΩ) were filled with a K^+-based internal solution for recording GIRK currents containing (mM): 120 KCl, 2 MgCl2, 11 EGTA, 30 KOH, 10 HEPES, 1 CaCl2, 1 GTP, 2 ATP, 14 creatine phosphate, pH 7.0. GABAAR currents and sIPSCs were recorded with a Cs-based internal solution containing (mM): 120 CsCl, 1 MgCl2, 11 EGTA, 30 KOH, 10 HEPES, 1 CaCl2, and 2 K2ATP; pH 7.2. […]

[2] = test system: GABAARs in hippocampal neurons; test: slow inward current directly activated by CGP7930 in hippocampal neurons in high K+ external solution and its block by GABAAR antagonists; assay type: cell-based, rat; conditions: hippocampal neurons, high external K+
Procedure: Spontaneous inhibitory postsynaptic currents (sIPSCs) were recorded from cultured hippocampal neurons at 12–17 days in vitro (DIV). […] For recording K^+ currents in GIRK cells and neurons, the bath solution was switched to a high K^+ solution containing 25 mM KCl and reduced NaCl (120 mM), to shift the equilibrium potential for K^+ from approximately −90 to −47 mV, thus reversing the direction of K^+ current flux to net inward. GABABR-activated K^+ currents in cultured neurons were recorded in the additional presence of 2 mM kynurenic acid and 20 μM picrotoxin.
CGP7930 modulation at neuronal GABABRs was also characterised using baclofen-activated GIRK currents in hippocampal cultures similarly bathed in a high external K^+ concentration.

Question: What does the source list for CC(C)(CO)Cc1cc(C(C)(C)C)c(O)c(C(C)(C)C)c1 [CGP7930, 3-(3′,5′-Di-tert-butyl-4′-hydroxy) phenyl-2,2-dimethylpropanol]?
Answer: effect on GIRK-mediated inwardly-rectifying currents (I–V, −20 to −120 mV) ([1]; 10 or 100 μM): inhibition; threshold for whole-cell outward currents ([1]; GIRK cells without GABABRs, −60 mV, high K+): 0.3 µM; effect on additional outward rectification (depolarising steps) ([1]; GIRK cells, I–V): inhibited; concentration at which pre-application caused a slow inward current [2]: > 3 µM
